Earlier results in US20190343774A1, “Compositions and Methods for Treating Neurologic Disorders” (PALUPA MEDICAL LTD., priority 2011, published 2019).

System: relapsing multiple sclerosis

Tysabri®: monoclonal antibody; second-line MS drug
decrease of the possibility of disability accumulation (known): 43%
decrease on ARR (known): 68%

glatiramer acetate
reduction of the annualized relapse rate (two-year trials): about one third
